Experimental data: patent US20060013804A1, “Modulation of stem cell differentiation by modulation of caspase-3 activity” (Ottawa Health Research Institute, priority 2002, published 2006)

Legend:
Assay type in all cases: cell-based, mouse
MST1 = MST1 immunoblot and immunoprecipitation/Histone H1 kinase assay from C2C12 lysates; conditions: for full-length MST1 protein level: C2C12, initial 24 h of low serum, Western blot
Procedure: (§1) Protein isolation, immunoblot analyses and immunocytochemistry. Cells from C2C12 and primary myoblast cultures were washed with ice-cold PBS and lysed on ice for 45 minutes in modified-RIPA buffer containing 20 mM NaF, 5 mM Na3VO4 and 10 μg/ml each of aprotinin, leupeptin, pepstatin and PMSF. Total protein was measured using the BCA protein assay (Pierce). Immunoblot analyses were performed as described (Creasy, C. L., & Chernoff, J. (1995) J. Biol. Chem. 270, 21695-21700) using antibodies for MST1, MKK6, p38γ, and p38α (Upstate), p38 and MEF2C (Cell Signaling Technologies), myogenin F5D and myosin heavy chain MF20 mAb (Developmental Hybridoma Bank), and active caspase-3 (Biovision).
Co-immunoprecipitation and kinase analyses. Immunoprecipitation was performed using 150-200 μg of total protein, incubated in modified-RIPA buffer at 4° C. for 16 h containing the respective antibody. Samples were mixed for 1 h with 25 μl of a 50% Protein G (Pharmacia). For co-immunoprecipitation, immunoprecipitates were washed in modified-RIPA buffer, boiled in 1× Lamelli buffer, separated by SDS-PAGE and Western blotted for immunoblot analyses. Immunoprecipitates used for kinase analyses were washed in modified-RIPA buffer and incubated in kinase buffer containing 20 mM MOPS (pH 7.2), 25 mM β-glycerophosphate, 5 mM EGTA, 1 mM Na3VO4 and 1 mM DTT supplemented with [γ-^32P]ATP and either recombinant MBP or recombinant Histone H1 (Upstate) as the target substrate. Samples were incubated for 30 min at 37° C. and then boiled in 1× Lamelli buffer. Following SDS-PAGE, gels were dried and phospho-incorporation was analyzed by autoradiography.
One kinase that was altered in activity co-migrated with a predicted pI (5.2) and molecular weight (36 kDa) consistent with Mammalian Sterile Twenty-like kinase (MST1). MST1 is a known caspase-3 activated kinase homologous to the yeast family of serine/threonine Ste20 kinases (Lechner, C., et al., (1996) Proc. Natl. Acad. Sci. USA 93, 43554359; Megeney, L. A., et al., (1996) Genes Dev 10, 1173-1183). […]

PARP cleavage = PARP cleavage by Western blot in differentiating C2C12 myoblasts; conditions: C2C12, treated vs untreated
Procedure: as §1
Cells were fixed after 0, 2 and 4 days of differentiation and stained with the myosin heavy chain antibody MF20. […] In contrast, differentiation was more evident in cells that were incubated with caspase-8 inhibitor, z-LETD.fmk (FIG. 2B bottom panel, C).

PAK2 = experiment: Immunoprecipitation/kinase assay of PAK2 from neurospheres; conditions: inhibited vs control treated cultures, neurosphere differentiation
[1] = system: endogenous kinases (MBP-directed cellular kinase activities); experiment: Two-dimensional in-gel kinase assay of C2C12 lysates with MBP as substrate; conditions: C2C12, 12 h low serum treatment with inhibitor, vs untreated
Procedure: Samples were subjected to in-gel kinase analyses as previously described (Kolodziejczyk, S. M., et al., (1999) Curr Biol 9, 1203-1206) using MBP or Histone H1 as the target substrate. For two-dimension in-gel kinase analyses, samples were isoelectric focused in the first dimension using pH 4.0-7.0 IPG strips (BioRad). Second dimension analyses was performed using 10% SDS-PAGE containing Histone H1 as the in-gel substrate. Additional in-gel kinase analyses was performed as above.
A two-dimensional in-gel kinase assay was employed using myelin basic protein (MBP) as a target substrate to identify protein kinases that may be targeted by caspase-3 activity. C2C12 cells were treated with caspase-3 inhibitor and total protein lysates were isoelectrically focused in the first dimension and then separated in the second dimension using MBP as the crosslinked substrate. […] Similar results were seen using histone H1 as the in-gel substrate.

ASK1 = experiment: Immunoprecipitation/kinase assay of ASK1 from neurospheres; conditions: differentiation media, vs DMSO
Procedure: Immunoprecipitation/Kinase activity assays: Immunoprecipitation/kinase analyses were performed as previously described (Fernando, P., et al., (2002) Proc Natl Acad Sci USA 99, 11025-11030). Cellular lysates from neurospheres were generated as described above. Antibodies against apoptotic signal-regulating kinase 1 (ASK1) (Upstate, USA), p21 activated kinase 1 (PAK1) (Cell Signaling Technologies, USA), and p38 MAPK (Santa Cruz, USA) were used to immunoprecipitate respective proteins. Samples were mixed with Protein G-sepharose beads for 1 h, washed and then mixed with kinase assay buffer containing myelin basic protein (MBP) and γ-32P[ATP]. Samples were reacted at 30° C. for 30 min and separated using SDS-PAGE. In some instances, samples were transferred to PVDF membrane following electrophoresis. To quantify kinase activities, MBP acrylamide bands were excised and solubilized in scintillation fluid prior to 32P-liquid scintillation analyses. In all cases, an activated recombinant mitogen activated protein kinase activated protein-2 (MAPKAP kinase-2) (Upstate, USA) was used as an internal control for liquid scintillation analyses.
Caspase 3, when processed to its active form, is capable of targeting and activating many protein kinases that mediate cellular differentiation. […]

full-length MST1 protein level (MST1): remained relatively unchanged | full-length MST1 protein level (MST1; listed as caspase-3 inhibitor): does not change | activity of endogenous kinases (in-gel, MBP substrate) [1]: diminished level of activity | ASK1 kinase activity (ASK1; listed as DEVD): decrease | ASK1 kinase activity (ASK1; listed as z-DEVD): reduced
Structure (SMILES): COC(=O)CC[C@H](NC(=O)[C@H](CC(=O)OC)NC(=O)OCc1ccccc1)C(=O)N[C@H](C(=O)N[C@@H](CC(=O)OC)C(=O)CF)C(C)C [z-DEVD.fmk]
MST1 kinase activity (Histone H1 phosphorylation) (MST1; MST1 immunoprecipitated from C2C12 lysates, 12 h low serum media): no phosphorylation above basal levels was detectable | PARP cleavage products (PARP cleavage; listed as Z-DEVD.fmk): Comparable levels of PARP cleavage | PARP cleavage products (PARP cleavage; listed as z-DEVD): accumulated to a similar degree | PAK2 activity (PAK2): did not observe differences in PAK2 activity | activity of endogenous kinases (in-gel, MBP substrate) ([1]; listed as caspase-3 inhibitor): significant loss of MBP-directed cellular kinase activities
